Measured values reported in ChEMBL document CHEMBL3137667, “[Drug-induced liver injury; fourteenth updated edition of the bibliographic database of liver injuries and related drugs]” (Gastroenterol Clin Biol, 2004).

Key:
[1] = Highest frequency of moderate liver toxicity observed during clinical trials, expressed as a percentage. [column '% BIOL' in source]; details: human
[2] = Highest frequency of acute liver toxicity observed during clinical trials, expressed as a percentage. [column '% AIGUE' in source]; details: human
[3] = Presence of at least one case with successful reintroduction. [column 'REINT' in source]; details: human
[4] = Times to onset, minimal and maximal, observed in the indexed observations. [column 'DELAI' in source]; details: human
[5] = human, serum
[6] = human, serum; remark: listed apart in the source
[7] = human
[8] = human; remark: listed apart in the source
[9] = human; remark: listed apart in the source
[10] = human, serum, 4383 h
[11] = human; remark: listed apart in the source
[12] = human; remark: listed apart in the source
[13] = human; remark: listed apart in the source
[14] = human; remark: listed apart in the source
[15] = human; remark: listed apart in the source
[16] = human; remark: listed apart in the source
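Wherever Hepatotoxicity (association with vascular disease) is given: count of indexed literature references reporting vascular liver injury in humans, e.g. peliosis hepatitis, hepatic veno-occlusive disease or Budd-Chiari syndrome.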
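Wherever Hepatotoxicity (benign tumour) is given: value is a count of indexed literature references citing a benign tumour confirmed by histopathology.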
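Wherever Hepatotoxicity (choleostasis) is given: human cholestatic liver injury, shown by histopathology or by peak ALT or AST elevation over alkaline phosphatase ratio below 2, value counts indexed literature reports.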
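Wherever Hepatotoxicity (chronic liver disease) is given: chronic liver injury confirmed by histopathology or persistently raised serum aminotransferase activity beyond 6 months, value given as the count of indexed literature references.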
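Wherever Hepatotoxicity (cirrhosis) is given: value is a count of indexed literature references reporting cirrhosis confirmed by histopathology.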
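Wherever Hepatotoxicity (cytolytic) is given: human cytolytic liver injury, shown by histopathology or by a ratio above 5 of peak ALT or AST elevation to alkaline phosphatase elevation, value counts indexed references.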
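Wherever Hepatotoxicity (granulomatous hepatitis) is given: value is a count of indexed literature references reporting granulomatous liver disease confirmed by histopathology.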
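Wherever Hepatotoxicity (malignant tumour) is given: malignant tumour confirmed by histopathology, value gives the count of indexed literature references reporting it.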
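Wherever Hepatotoxicity (severe hepatitis) is given: human clinical data: severe hepatitis, meaning potentially life-threatening liver failure or clinically observed cases, the value counts how many indexed literature references report it.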
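Wherever Hepatotoxicity (steatosis) is given: steatosis confirmed by histopathology, value is the count of indexed references.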

Row | SMILES | Hepatotoxicity (moderate) [1] [%] | Hepatotoxicity (acute) [2] [%] | Hepatotoxicity (successful reintroduction) [3] | Hepatotoxicity (time to onset) [4] | Hepatotoxicity (moderate) [5] | Hepatotoxicity (acute) [6] | Hepatotoxicity (cytolytic) [7] | Hepatotoxicity (choleostasis) [8] | Hepatotoxicity (severe hepatitis) [9] | Hepatotoxicity (chronic liver disease) [10] | Hepatotoxicity (cirrhosis) [11] | Hepatotoxicity (granulomatous hepatitis) [12] | Hepatotoxicity (association with vascular disease) [13] | Hepatotoxicity (steatosis) [14] | Hepatotoxicity (malignant tumour) [15] | Hepatotoxicity (benign tumour) [16] | also measured
1 | [Li] [LITHIUM] | 0 | 0 | yes | 2 days - 2 months | 4 | 0 | 0 | 0 | 0 | 1 | 0 | 0 | 0 | 0 | 0 | 0 | –
2 | CN(CCCN1c2ccccc2CCc2ccccc21)CC(=O)c1ccc(Cl)cc1 [LOFEPRAMINE] | 46.5 | 2.3 | yes | 1 week - 12 weeks | 7 | 3 | 2 | 3 | 1 | 0 | 0 | 0 | 0 | 0 | 0 | 0 | –
3 | N[C@@H](C(=O)N[C@@H]1C(=O)N2C(C(=O)O)=C(Cl)CC[C@H]12)c1ccccc1 [LORACARBEF ANHYDROUS] | 15 | 0 | yes | 1 week - 6 weeks | 19 | 1 | 1 | 1 | 0 | 0 | 0 | 0 | 0 | 0 | 0 | 0 | –
4 | CCCCc1nc(Cl)c(CO)n1Cc1ccc(-c2ccccc2-c2nn[nH]n2)cc1 [LOSARTAN] | 20 | 0 | yes | 2 weeks - 5 months | 11 | 5 | 4 | 0 | 1 | 1 | 0 | 0 | 0 | 0 | 0 | 0 | –
5 | CCC1(c2ccccc2)C(=O)NC(=O)N(C)C1=O (stereo not given) [MEPHOBARBITAL] | 0 | 0 | yes | 3 months | 0 | 1 | 1 | 0 | 0 | 0 | 0 | 0 | 0 | 0 | 0 | 0 | –
6 | CN(C)C(=N)N=C(N)N [METFORMIN] | – | – | yes | 1 week - 17 months | 1 | 10 | – | – | – | 0 | 0 | – | 0 | 0 | 0 | 0 | Hepatotoxicity (moderate) ([1]; Liver): 0%; Hepatotoxicity (acute) ([2]; Liver): 0%; Hepatotoxicity (cytolytic) ([7]; Liver): 3; Hepatotoxicity (choleostasis) ([8]; Liver): 6; Hepatotoxicity (severe hepatitis) ([9]; Liver): 0; Hepatotoxicity (granulomatous hepatitis) ([12]; Liver): 0
7 | CC(=O)O[C@H]1CC[C@H]2[C@@H]3CC[C@H]4CC(=O)C=C(C)[C@]4(C)[C@H]3CC[C@]12C [METHENOLONE ACETATE] | 0 | 0 | yes | 1 month - 15 years | 1 | 5 | 0 | 0 | 0 | 0 | 0 | 0 | 0 | 0 | 1 | 1 | –
8 | COC(=O)C(c1ccccc1)C1CCCCN1 (stereo not given) [METHYLPHENIDATE] | 0 | 0 | yes | 2 days - 2 months | 1 | 4 | 3 | 0 | 2 | 0 | 0 | 0 | 0 | 0 | 0 | 0 | –
9 | C[C@H]1C[C@@H]2[C@H]([C@@H](O)C[C@@]3(C)[C@H]2CC[C@]3(O)C(=O)CO)[C@@]2(C)C=CC(=O)C=C12 [METHYLPREDNISOLONE] | 0 | 0 | yes | 40 days | 0 | 2 | 2 | 0 | 0 | 0 | 0 | 0 | 0 | 2 | 0 | 0 | –
10 | Nc1cc(N2CCCCC2)nc(N)[n+]1[O-] [MINOXIDIL] | 4.3 | 0 | yes | 3 days - 1 year | 5 | 0 | 0 | 0 | 0 | 0 | 0 | 0 | 0 | 0 | 0 | 0 | –
